Data on ten compounds can be found in ChEMBL document CHEMBL1201862, “PubChem BioAssay data set” (2004).

Test systems include A549; HCC 2998; HCT-15; Hs-578T; IGROV-1; KM12; LOX IMVI; MCF7; MDA-MB-435; Malme-3M; NCI-H226; OVCAR-5; OVCAR-8; PC-3; SK-OV-3; SN12C; SNB-19; SNB-75; SW-620; T47D.
Experiment in all cases: NCI tumour cell line growth inhibition, 48 h

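How tested: cells in 96-well plates exposed to compound for 48 hours at five concentrations. Abbreviation: GI50, concentration required for 50% inhibition of growth.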 Active and inactive are the calls of the source. Rule as the data show it: active = GI50 up to about 1.1 µM and inactive = higher. A value given as a limit tells only on which side of the number the result lay.

`O=C1NC2C(=CC(O)C(O)C2O)c2cc3c(cc21)OCO3` (stereo not given): the GI50 with A549 was 0.52 µM (active); with HCC 2998, 0.415 µM (active); in the assay on HCT-15 it was 0.52 µM; in the assay with Hs-578T, 0.0794 µM (active); with IGROV-1 it was 0.494 µM (active); in the assay with KM12, 0.272 µM (active). Moreover, the GI50 with LOX IMVI is 0.308 µM (active); in the assay with MCF7 it was 0.338 µM (active); in the assay with MDA-MB-435, 0.0951 µM (active); in the assay with Malme-3M, 0.488 µM (active); with NCI-H226, 0.504 µM (active); with OVCAR-5, 0.94 µM (active). In addition, the GI50 in the assay with OVCAR-8 was 0.233 µM (active); in the assay with PC-3 it was 0.141 µM (active); in the assay on SK-OV-3, 0.619 µM (active); in the assay on SN12C, 0.301 µM (active); with SNB-19, 0.244 µM (active); with SNB-75, 0.568 µM (active). Further, the GI50 with SW-620 is 0.335 µM (active); in the assay with T47D, 0.0964 µM (active).
In the case of `Cc1cccc(C(=O)O)c1CC1NCCC2c3ccccc3NC12` (stereo not given), the GI50 in the assay on A549 is > 100 µM (inactive); in the assay with HCC 2998, > 100 µM (inactive); with HCT-15 it was over 100 µM; with Hs-578T, > 100 µM (inactive); in the assay on IGROV-1, > 100 µM (inactive); in the assay with KM12 it was > 100 µM (inactive). Also, the GI50 in the assay on LOX IMVI, in the assay with MCF7, with MDA-MB-435, in the assay on Malme-3M, with NCI-H226 and in the assay on OVCAR-5 was > 100 µM (inactive) in each case. Moreover, the GI50 in the assay on OVCAR-8, with PC-3, with SK-OV-3, in the assay with SN12C, with SNB-19 and in the assay on SNB-75 was > 100 µM (inactive) in each case. Moreover, the GI50 in the assay on SW-620 and in the assay with T47D was > 100 µM (inactive) each time.
Turning to `COc1cc(C[C@H]2C(=O)OC[C@@H]2Cc2ccc(OC)c(OC)c2)cc(OC)c1`, the GI50 in the assay with A549 was 74.8 µM (inactive); in the assay with HCC 2998, > 100 µM (inactive); in the assay on HCT-15, 53.3 µM; in the assay on Hs-578T, > 100 µM (inactive); with IGROV-1, > 100 µM (inactive); with KM12, 51.6 µM (inactive). The GI50 with LOX IMVI is 18.5 µM (inactive); in the assay with MCF7, 34.2 µM (inactive); with MDA-MB-435, 55.7 µM (inactive); in the assay on Malme-3M, 55.6 µM (inactive); in the assay with NCI-H226 it was > 100 µM (inactive); in the assay on OVCAR-5 it was > 100 µM (inactive). Moreover, the GI50 was 98.4 µM (inactive) with OVCAR-8; 33 µM (inactive) with PC-3; > 100 µM (inactive) in the assay on SK-OV-3; > 100 µM (inactive) in the assay on SN12C; > 100 µM (inactive) in the assay with SNB-19; 40.6 µM (inactive) in the assay with SNB-75. Further, the GI50 in the assay with SW-620 is 70.6 µM (inactive); with T47D, 35.2 µM (inactive).
With `CN=C(n1ccnc1)n1ccnc1`, the GI50 is > 100 µM (inactive) in the assay on A549; > 100 µM (inactive) with HCC 2998; over 100 µM in the assay on HCT-15; > 100 µM (inactive) in the assay on Hs-578T; > 100 µM (inactive) with IGROV-1; > 100 µM (inactive) with KM12. In addition, the GI50 with LOX IMVI, in the assay on MCF7, in the assay on MDA-MB-435, in the assay on Malme-3M, in the assay on NCI-H226 and with OVCAR-5 was > 100 µM (inactive) throughout. Also, the GI50 in the assay on OVCAR-8, with PC-3, in the assay with SK-OV-3, in the assay with SN12C, with SNB-19 and in the assay with SNB-75 was > 100 µM (inactive) throughout. In addition, the GI50 in the assay with SW-620 and with T47D was > 100 µM (inactive) in each case.
Consider `N#CC12C(=O)N3C(=NC(c4ccccc4)NC3c3ccccc3)C1(C#N)C(c1ccccc1)NC1=C2CCC1` (stereo not given), for which the GI50 in the assay on A549 is > 100 µM (inactive); in the assay with HCC 2998, > 100 µM (inactive); in the assay with HCT-15, over 100 µM; with Hs-578T, > 100 µM (inactive); in the assay with IGROV-1, > 100 µM (inactive); in the assay on KM12 it was > 100 µM (inactive). Further, the GI50 in the assay on LOX IMVI, in the assay on MCF7, in the assay on MDA-MB-435, with Malme-3M, in the assay on NCI-H226 and in the assay with OVCAR-5 was > 100 µM (inactive) in each case. Besides, the GI50 with OVCAR-8, in the assay with PC-3, in the assay with SK-OV-3, with SN12C, in the assay with SNB-19 and with SNB-75 was > 100 µM (inactive) each time. Further, the GI50 with SW-620 and with T47D was > 100 µM (inactive) in each case.
Regarding `Cn1cncc1CC1COC(=O)C1C(O)c1ccccc1` (stereo not given), the GI50 with A549 is > 100 µM (inactive); in the assay with HCC 2998, > 100 µM (inactive); in the assay on HCT-15, over 100 µM; with Hs-578T it was > 100 µM (inactive); in the assay on IGROV-1, > 100 µM (inactive); in the assay on KM12, > 100 µM (inactive). In addition, the GI50 in the assay on LOX IMVI, with MCF7, with MDA-MB-435, in the assay on Malme-3M, in the assay on NCI-H226 and in the assay with OVCAR-5 was > 100 µM (inactive) in each case. In addition, the GI50 in the assay on OVCAR-8, in the assay with PC-3, in the assay with SK-OV-3, with SN12C, in the assay on SNB-19 and in the assay on SNB-75 was > 100 µM (inactive) throughout. Moreover, the GI50 in the assay on SW-620 and with T47D was > 100 µM (inactive) each time.
As to `O=c1cc(NCc2ccncc2)[nH]c(=O)[nH]1`, the GI50 in the assay on A549 was > 100 µM (inactive); in the assay with HCC 2998, > 100 µM (inactive); in the assay with HCT-15 it was over 100 µM; in the assay with Hs-578T, > 100 µM (inactive); with IGROV-1, > 100 µM (inactive); with KM12, > 100 µM (inactive). The GI50 in the assay with LOX IMVI, in the assay with MCF7, in the assay on MDA-MB-435, with Malme-3M, with NCI-H226 and with OVCAR-5 was > 100 µM (inactive) in each case. Besides, the GI50 in the assay on OVCAR-8, in the assay on PC-3, in the assay on SK-OV-3, in the assay on SN12C, with SNB-19 and in the assay with SNB-75 was > 100 µM (inactive) throughout. For the same compound, the GI50 in the assay on SW-620 and in the assay on T47D was > 100 µM (inactive) each time.
As for `Cc1n[nH]c(=O)n1/N=C\CC/C=N\n1c(C)n[nH]c1=O`, the GI50 in the assay with A549 was > 100 µM (inactive); with HCC 2998 it was > 100 µM (inactive); with HCT-15 it was over 100 µM; in the assay on Hs-578T it was > 100 µM (inactive); in the assay on IGROV-1 it was > 100 µM (inactive); with KM12 it was > 100 µM (inactive). Moreover, the GI50 with LOX IMVI, with MCF7, with MDA-MB-435, in the assay with Malme-3M, with NCI-H226 and in the assay with OVCAR-5 was > 100 µM (inactive) each time. For the same compound, the GI50 with OVCAR-8, with PC-3, in the assay with SK-OV-3, in the assay with SN12C, with SNB-19 and in the assay with SNB-75 was > 100 µM (inactive) each time. Also, the GI50 with SW-620 and in the assay on T47D was > 100 µM (inactive) throughout.
Consider `N#Cc1c(N)c(-c2ccc(Cl)cc2)c(F)c2ccccc12`, for which the GI50 in the assay with A549 was > 100 µM (inactive); with HCC 2998, > 100 µM (inactive); in the assay on HCT-15, over 100 µM; in the assay on Hs-578T, 7.35 µM (inactive); in the assay on IGROV-1, > 100 µM (inactive); with KM12 it was > 100 µM (inactive). Moreover, the GI50 is 94.2 µM (inactive) in the assay on LOX IMVI; 6.49 µM (inactive) in the assay with MCF7; > 100 µM (inactive) in the assay on MDA-MB-435; > 100 µM (inactive) in the assay on Malme-3M; > 100 µM (inactive) in the assay on NCI-H226; > 100 µM (inactive) with OVCAR-5. Also, the GI50 in the assay with OVCAR-8 is > 100 µM (inactive); in the assay with PC-3, > 100 µM (inactive); with SK-OV-3 it was > 100 µM (inactive); in the assay with SN12C, > 100 µM (inactive); with SNB-19, > 100 µM (inactive); with SNB-75, 11.1 µM (inactive). For the same compound, the GI50 in the assay with SW-620 and with T47D was > 100 µM (inactive) throughout.
For `COc1nc(N=P(c2ccccc2)(c2ccccc2)c2ccccc2)cc(=O)[nH]1`, the GI50 in the assay with A549 was > 100 µM (inactive); in the assay with HCC 2998, > 100 µM (inactive); with HCT-15 it was over 100 µM; in the assay with Hs-578T, > 100 µM (inactive); in the assay on IGROV-1, > 100 µM (inactive); with KM12, > 100 µM (inactive). Moreover, the GI50 in the assay with LOX IMVI, in the assay on MCF7, with MDA-MB-435, with Malme-3M, in the assay with NCI-H226 and in the assay with OVCAR-5 was > 100 µM (inactive) in each case. The GI50 in the assay on OVCAR-8, with PC-3, in the assay on SK-OV-3, with SN12C, with SNB-19 and in the assay on SNB-75 was > 100 µM (inactive) each time. The GI50 with SW-620 and with T47D was > 100 µM (inactive) each time.
